In test [1] the target is T1, QPCTL (Homo sapiens (Human), UniProt Q9NXS2). Kind of test: Inhibition of Cellular QPCTL Activity - Imaging Assay, CC2C6 anti-CD47 staining of DLD-1 cells. It counts as cell-based. The note with it: 72 hours, CC2C6 anti-CD47 high-content imaging. The method, then: Inhibition of Cellular QPCTL Activity—Imaging Assay
The cells were incubated for 72 hours at 37° C. and 5% CO2. […] After primary antibody staining, the cells were fixed with 4% paraformaldehyde in the incubation buffer for 15 minutes at room temperature. […] Cells were analyzed on a ImageXpress Pico Automated Cell Imaging System (Molecular Devices) using 10× objective (3×3 fields).
Target sequence in this assay (Q9NXS2 whole entry): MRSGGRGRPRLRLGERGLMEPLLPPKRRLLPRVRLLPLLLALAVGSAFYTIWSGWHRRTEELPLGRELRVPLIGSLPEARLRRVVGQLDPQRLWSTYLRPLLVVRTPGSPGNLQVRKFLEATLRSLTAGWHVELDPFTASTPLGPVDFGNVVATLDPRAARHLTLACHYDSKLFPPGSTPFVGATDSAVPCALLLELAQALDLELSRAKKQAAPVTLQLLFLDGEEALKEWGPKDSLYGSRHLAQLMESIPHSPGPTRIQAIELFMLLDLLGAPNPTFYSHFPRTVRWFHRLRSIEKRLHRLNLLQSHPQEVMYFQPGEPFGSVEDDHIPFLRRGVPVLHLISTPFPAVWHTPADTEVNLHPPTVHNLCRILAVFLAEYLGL

For another test, the target named is QPCT (rhQPCT) (Homo sapiens (Human), UniProt Q16769). Nature of the test: QPCT Enzymatic Activity Assay (coupled-enzyme fluorescent assay, H-Gln-AMC substrate). The note with it: rhQPCT 10-12 nM, 10 μM H-Gln-AMC; read-out: QPCT Inhibition IC50. The format is biochemical. The method in brief: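 Coupled assay: recombinant human QPCT converts H-Gln-AMC (10 μM final) to pyroglutamyl-AMC, 60 min at 37 °C, stopped by boiling; PGPEP-1 then releases AMC.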
Sequence of QPCT (rhQPCT) (Q16769 29-361): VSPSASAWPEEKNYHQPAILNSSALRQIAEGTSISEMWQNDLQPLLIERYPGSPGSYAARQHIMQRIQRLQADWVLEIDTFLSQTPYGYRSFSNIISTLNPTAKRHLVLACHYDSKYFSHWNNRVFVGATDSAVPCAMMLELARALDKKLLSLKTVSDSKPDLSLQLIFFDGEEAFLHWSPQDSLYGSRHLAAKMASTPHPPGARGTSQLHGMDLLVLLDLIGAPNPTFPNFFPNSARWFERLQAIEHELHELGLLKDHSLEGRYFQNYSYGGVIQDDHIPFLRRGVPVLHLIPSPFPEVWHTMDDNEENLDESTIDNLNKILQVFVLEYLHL

In test [2] the target is T1, QPCTL. Kind of test: QPCTL Enzymatic Activity Assay (coupled-enzyme fluorescent assay, H-Gln-AMC substrate). The format is biochemical. The note with it: recombinant truncated human QPCTL 10-12 nM, 10 μM H-Gln-AMC; read-out: QPCTL Inhibition IC50.
Target sequence in this assay (Q9NXS2 53-382): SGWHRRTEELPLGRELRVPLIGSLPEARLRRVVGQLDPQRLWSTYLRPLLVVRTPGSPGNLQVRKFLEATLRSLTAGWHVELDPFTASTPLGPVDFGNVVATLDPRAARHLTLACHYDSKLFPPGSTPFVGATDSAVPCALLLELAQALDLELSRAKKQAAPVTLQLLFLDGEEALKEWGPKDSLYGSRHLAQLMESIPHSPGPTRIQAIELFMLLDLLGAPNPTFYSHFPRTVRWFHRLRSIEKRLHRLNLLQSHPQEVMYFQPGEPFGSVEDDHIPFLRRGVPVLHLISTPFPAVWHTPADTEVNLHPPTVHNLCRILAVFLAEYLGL

Bounds are passed on as bounds.

Usually IC50 stands for the concentration needed to halve the response being measured. Take `Cn1cnnc1C1CCN(c2c(-c3ccc(F)nc3)ccc(-c3cnn4c3OCCC4)c2C#N)CC1` [Example 64, 6-(6,7-dihydro-5H-pyrazolo[5,1-b][1,3]oxazin-3-yl)-3-(6-fluoropyridin-3-yl)-2-(4-(4-methyl-4H-1,2,4-triazol-3-yl)piperidin-1-yl)benzonitrile]: the IC50 against QPCTL [1], at QPCT (rhQPCT) and on QPCTL [2] was below 100 nM throughout.

On to `Cc1cc(-c2ccc(-c3cc[nH]n3)c(C#N)c2N2CCC(c3nncn3C)CC2)cnn1` [Example 65, 2-(4-(4-methyl-4H-1,2,4-triazol-3-yl)piperidin-1-yl)-3-(6-methylpyridazin-4-yl)-6-(1H-pyrazol-3-yl)benzonitrile], for which the IC50 was above 10000 nM on QPCTL [1], below 100 nM at QPCT (rhQPCT) and below 100 nM at QPCTL [2].

Turning to `Cc1cc(C#N)c(N2CCC(c3nncn3C)CC2)c(-c2ccc(F)nc2)c1` [Example 66, 3-(6-fluoropyridin-3-yl)-5-methyl-2-(4-(4-methyl-4H-1,2,4-triazol-3-yl)piperidin-1-yl)benzonitrile], the IC50 at QPCTL [1], at QPCT (rhQPCT) and at QPCTL [2] was below 100 nM each time.

Turning to `Cc1ccc(-c2ccc(F)nc2)c(N2CCC(c3nncn3C)CC2)c1C#N` [Example 67, 3-(6-fluoropyridin-3-yl)-6-methyl-2-(4-(4-methyl-4H-1,2,4-triazol-3-yl)piperidin-1-yl)benzonitrile], the IC50 against QPCTL [1], on QPCT (rhQPCT) and at QPCTL [2] was below 100 nM in each case.

As to `Cn1cnnc1C1CCN(c2c(-c3ccc(F)nc3)ccc(C3CC3)c2C#N)CC1` [Example 68, 6-cyclopropyl-3-(6-fluoropyridin-3-yl)-2-(4-(4-methyl-4H-1,2,4-triazol-3-yl)piperidin-1-yl)benzonitrile], the IC50 against QPCTL [1], on QPCT (rhQPCT) and at QPCTL [2] was below 100 nM each time.

With `Cn1cnnc1C1CCN(c2c(C#N)cc(Cl)cc2-c2ccc(F)nc2)CC1` [Example 69, 5-chloro-3-(6-fluoropyridin-3-yl)-2-(4-(4-methyl-4H-1,2,4-triazol-3-yl)piperidin-1-yl)benzonitrile], the IC50 against QPCTL [1], at QPCT (rhQPCT) and at QPCTL [2] was below 100 nM throughout.

Consider `Cn1cnnc1C1CCN(c2c(C#N)cc(C(F)(F)F)cc2-c2ccc(F)nc2)CC1` [Example 70, 3-(6-fluoropyridin-3-yl)-2-(4-(4-methyl-4H-1,2,4-triazol-3-yl)piperidin-1-yl)-5-(trifluoromethyl)benzonitrile], for which the IC50 against QPCTL [1], at QPCT (rhQPCT) and at QPCTL [2] was below 100 nM in each case.

`Cn1cnnc1C1CCN(c2c(-c3ccc(F)nc3)ccc(F)c2C#N)CC1` [Example 71, 6-fluoro-3-(6-fluoropyridin-3-yl)-2-(4-(4-methyl-4H-1,2,4-triazol-3-yl)piperidin-1-yl)benzonitrile]: the 50% inhibitory concentration (IC50) against QPCTL [1], at QPCT (rhQPCT) and on QPCTL [2] was below 100 nM each time.

For `Cn1cnnc1C1CCN(c2c(-c3ccc(F)nc3)ccc(-c3cn[nH]c3)c2C#N)CC1` [Example 73, 3-(6-fluoropyridin-3-yl)-2-(4-(4-methyl-4H-1,2,4-triazol-3-yl)piperidin-1-yl)-6-(1H-pyrazol-4-yl)benzonitrile], the IC50 on QPCTL [1], on QPCT (rhQPCT) and on QPCTL [2] was below 100 nM each time.

Consider `Cn1cnnc1C1CCN(c2c(-c3ccc(F)nc3)ccc(OC3CC3)c2C#N)CC1` [Example 76, 6-cyclopropoxy-3-(6-fluoropyridin-3-yl)-2-(4-(4-methyl-4H-1,2,4-triazol-3-yl)piperidin-1-yl)benzonitrile], for which the 50% inhibitory concentration (IC50) against QPCTL [1], at QPCT (rhQPCT) and on QPCTL [2] was below 100 nM in each case.

With `Cn1cnnc1C1CCN(c2c(-c3ccc(F)nc3)ccc(OCC3CC3)c2C#N)CC1` [Example 77, 6-(cyclopropylmethoxy)-3-(6-fluoropyridin-3-yl)-2-(4-(4-methyl-4H-1,2,4-triazol-3-yl)piperidin-1-yl)benzonitrile], the IC50 on QPCTL [1], at QPCT (rhQPCT) and at QPCTL [2] was below 100 nM in each case.

Regarding `Cn1cnnc1C1CCN(c2c(-c3ccc(F)nc3)ccc(N)c2C#N)CC1` [Example 78, 6-amino-3-(6-fluoropyridin-3-yl)-2-(4-(4-methyl-4H-1,2,4-triazol-3-yl)piperidin-1-yl)benzonitrile], the IC50 against QPCTL [1], at QPCT (rhQPCT) and on QPCTL [2] was below 100 nM throughout.

Regarding `CN(C)C(=O)c1ccc(-c2ccc(F)nc2)c(N2CCC(c3nncn3C)CC2)c1C#N` [Example 79, 2-cyano-4-(6-fluoropyridin-3-yl)-N,N-dimethyl-3-(4-(4-methyl-4H-1,2,4-triazol-3-yl)piperidin-1-yl)benzamide], the half-inhibitory concentration (IC50) is 100 to 1000 nM on QPCTL [1], below 100 nM on QPCT (rhQPCT) and below 100 nM at QPCTL [2].

`CN1CCN(c2ccc(-c3ccc(F)nc3)c(N3CCC(c4nncn4C)CC3)c2C#N)CC1` [Example 80, 3-(6-fluoropyridin-3-yl)-2-(4-(4-methyl-4H-1,2,4-triazol-3-yl)piperidin-1-yl)-6-(4-methylpiperazin-1-yl)benzonitrile]: the IC50 at QPCTL [1], at QPCT (rhQPCT) and on QPCTL [2] was below 100 nM each time.

Regarding `Cn1cnnc1C1CCN(c2c(-c3ccc(F)nc3)ccc(NC3CC3)c2C#N)CC1` [Example 81, 6-(cyclopropylamino)-3-(6-fluoropyridin-3-yl)-2-(4-(4-methyl-4H-1,2,4-triazol-3-yl)piperidin-1-yl)benzonitrile], the IC50 against QPCTL [1], at QPCT (rhQPCT) and on QPCTL [2] was below 100 nM each time.

Consider `CNCCOc1ccc(-c2ccc(F)nc2)c(N2CCC(c3nncn3C)CC2)c1C#N` [Example 82, 3-(6-fluoropyridin-3-yl)-2-(4-(4-methyl-4H-1,2,4-triazol-3-yl)piperidin-1-yl)-6-(2-(methylamino)ethoxy)benzonitrile], for which the figures for the IC50 against QPCTL [1], at QPCT (rhQPCT) and on QPCTL [2] were 1000 to 10000 nM, below 100 nM and below 100 nM, respectively.

`CNCCN(C)c1ccc(-c2ccc(F)nc2)c(N2CCC(c3nncn3C)CC2)c1C#N` [Example 83, 3-(6-fluoropyridin-3-yl)-6-(methyl(2-(methylamino)ethyl)amino)-2-(4-(4-methyl-4H-1,2,4-triazol-3-yl)piperidin-1-yl)benzonitrile]: the values for the IC50 on QPCTL [1], on QPCT (rhQPCT) and on QPCTL [2] were 1000 to 10000 nM, below 100 nM and below 100 nM, respectively.

For `Cn1cnnc1C1CCN(c2c(-c3ccc(F)nc3)ccc(NS(C)(=O)=O)c2C#N)CC1` [Example 84, N-(2-cyano-4-(6-fluoropyridin-3-yl)-3-(4-(4-methyl-4H-1,2,4-triazol-3-yl)piperidin-1-yl)phenyl)methanesulfonamide], the values for the IC50 against QPCTL [1], at QPCT (rhQPCT) and at QPCTL [2] were above 10000 nM, below 100 nM and below 100 nM, respectively.

With `Cn1cnnc1C1CCN(c2c(-c3ccc(F)nc3)ccc(N3CCNCC3)c2C#N)CC1` [Example 85, 3-(6-fluoropyridin-3-yl)-2-(4-(4-methyl-4H-1,2,4-triazol-3-yl)piperidin-1-yl)-6-(piperazin-1-yl)benzonitrile], the figures for the IC50 against QPCTL [1], on QPCT (rhQPCT) and at QPCTL [2] were 1000 to 10000 nM, below 100 nM and below 100 nM, respectively.

With `COCCOc1ccc(-c2ccc(F)nc2)c(N2CCC(c3nncn3C)CC2)c1C#N` [Example 86, 3-(6-fluoropyridin-3-yl)-6-(2-methoxyethoxy)-2-(4-(4-methyl-4H-1,2,4-triazol-3-yl)piperidin-1-yl)benzonitrile], the concentration for half-maximal inhibition (IC50) against QPCTL [1], at QPCT (rhQPCT) and on QPCTL [2] was below 100 nM throughout.

For `Cn1cnnc1C1CCN(c2c(-c3ccc(F)nc3)ccc(N3CCOCC3)c2C#N)CC1` [Example 87, 3-(6-fluoropyridin-3-yl)-2-(4-(4-methyl-4H-1,2,4-triazol-3-yl)piperidin-1-yl)-6-morpholinobenzonitrile], the IC50 on QPCTL [1], on QPCT (rhQPCT) and at QPCTL [2] was below 100 nM throughout.

As for `Cn1cnnc1C1CCN(c2c(-c3ccc(F)nc3)ccc(-c3c[nH]nc3N)c2C#N)CC1` [Example 92, 6-(3-amino-1H-pyrazol-4-yl)-3-(6-fluoropyridin-3-yl)-2-(4-(4-methyl-4H-1,2,4-triazol-3-yl)piperidin-1-yl)benzonitrile], the IC50 at QPCTL [1] was 100 to 1000 nM; at QPCT (rhQPCT), below 100 nM; at QPCTL [2], below 100 nM.

`Cn1cnnc1C1CCN(c2c(C#N)cccc2-c2cnc3nccn3c2)CC1` [Example 93, 3-(imidazo[1,2-a]pyrimidin-6-yl)-2-(4-(4-methyl-4H-1,2,4-triazol-3-yl)piperidin-1-yl)benzonitrile]: the 50% inhibitory concentration (IC50) on QPCTL [1] was 100 to 1000 nM; at QPCT (rhQPCT) it was below 100 nM; at QPCTL [2], below 100 nM.

In the case of `COc1ccc(-c2cnc3nccn3c2)c(N2CCC(c3nncn3C)CC2)c1C#N` [Example 94, 3-(imidazo[1,2-a]pyrimidin-6-yl)-6-methoxy-2-(4-(4-methyl-4H-1,2,4-triazol-3-yl)piperidin-1-yl)benzonitrile], the IC50 is 1000 to 10000 nM against QPCTL [1], below 100 nM at QPCT (rhQPCT) and below 100 nM at QPCTL [2].

In the case of `Cn1cnnc1C1CCN(c2c(-c3ccc(F)nc3)ccc(N3CC(O)C3)c2C#N)CC1` [Example 95, 3-(6-fluoropyridin-3-yl)-6-(3-hydroxyazetidin-1-yl)-2-(4-(4-methyl-4H-1,2,4-triazol-3-yl)piperidin-1-yl)benzonitrile], the IC50 at QPCTL [1], at QPCT (rhQPCT) and at QPCTL [2] was below 100 nM throughout.

Values taken from patent US20240101544A1, “INHIBITORS OF QPCTL AND QPCT” (priority 2022, published 2024).
